Measured values taken from US10765114B2, “4-amino-6-(pyridyl and 2-substitutedphenyl)-picolinates and 6-amino-2-(pyridyl and 2-substitutedphenyl)-pyrimidine-4-carboxylates and their use as herbicides” (Dow AgroSciences LLC, priority 2013, dated 2020).
Where two headings read alike, the source gives them in different places.

Experiments:
[1] = system: Key Grass and Sedge Weeds as well as Grass Crops; assay: Post-Emergent Test II (Table 6); type: in vivo; conditions: post-emergence, 336 h, 14 days after application; for pest or weed control at 70 g/ha: 70 g ai/ha; for pest or weed control at 140 g/ha: 140 g ai/ha
Outline: (§1)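 Growth stage at treatment: first or second true leaf. Application: compound in acetone/DMSO diluted into an adjuvant-containing aqueous mix, sprayed at 187 L/ha at several rates. Assessment: visual 0-100% injury at 14 days against untreated plants.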

[2] = system: Key Broadleaf Weed and Crop Species; assay: Post-Emergent Test II (Table 5); type: in vivo; conditions: post-emergence, 336 h; for pest or weed control at 70 g/ha: application rate 70 (kg ai/ha; footnote: g ai/ha); for pest or weed control at 140 g/ha: application rate 140 (kg ai/ha; footnote: g ai/ha)
Outline: as §1

[3] = DIGSA: crabgrass (Digitaria sanguinalis), read-out: Visual Growth Reduction (%) 14 Days After Application DIGSA
[4] = ECHSS, read-out: Visual Growth Reduction (%) 14 Days After Application ECHSS
[5] = ORYSS (crop), read-out: Visual Growth Reduction (%) 14 Days After Application ORYSS
[6] = SETFA: giant foxtail (Setaria faberi), read-out: Visual Growth Reduction (%) 14 Days After Application SETFA
[7] = SORVU: grain sorghum (Sorghum vulgare), read-out: Visual Growth Reduction (%) 14 Days After Application SORVU
[8] = TRZSS (crop), read-out: Visual Growth Reduction (%) 14 Days After Application TRZSS
[9] = ZEAMX: maize, corn (Zea mays), read-out: Visual Growth Reduction (%) 14 Days After Application ZEAMX
[10] = Abutilon theophrasti, ABUTH: velvetleaf (Abutilon theophrasti), read-out: Visual Growth Reduction (%) 14 Days After Application ABUTH
[11] = Amaranthus retroflexus, AMARE: redroot pigweed (Amaranthus retroflexus), read-out: Visual Growth Reduction (%) 14 Days After Application AMARE
[12] = Brassica napus, BRSSS: oilseed rape, canola (Brassica napus), read-out: Visual Growth Reduction (%) 14 Days After Application BRSSS
[13] = Chenopodium album, CHEAL: lambsquarters (Chenopodium album), read-out: Visual Growth Reduction (%) 14 Days After Application CHEAL
[14] = Euphorbia heterophylla, EPHHL: wild poinsettia (Euphorbia heterophylla), read-out: Visual Growth Reduction (%) 14 Days After Application EPHHL
[15] = Helianthus annuus, HELAN: sunflower (Helianthus annuus), read-out: Visual Growth Reduction (%) 14 Days After Application HELAN
[16] = Viola tricolor, VIOTR: wild pansy (Viola tricolor), read-out: Visual Growth Reduction (%) 14 Days After Application VIOTR
[17] = CYPSS, read-out: Visual Growth Reduction (%) 14 Days After Application CYPSS

Cc1c(-c2cc(N)c(Cl)c(C(=O)O)n2)ccc(C(F)(F)F)c1F [Compound 61, 4-amino-3-chloro-6-(3-fluoro-2-methyl-4-(trifluoromethyl)phenyl)picolinic acid]
pest or weed control at 70 g/ha [1, 3]: 0 to 29%
pest or weed control at 140 g/ha [1, 3]: 0 to 29%
pest or weed control at 70 g/ha [1, 4]: 85 to 94%
pest or weed control at 140 g/ha [1, 4]: 85 to 94%
pest or weed control at 70 g/ha [1, 5]: 0 to 29%
pest or weed control at 140 g/ha [1, 5]: 0 to 29%
pest or weed control at 70 g/ha [1, 6]: 45 to 59%
pest or weed control at 140 g/ha [1, 6]: 60 to 74%
pest or weed control at 70 g/ha [1, 7]: 0 to 29%
pest or weed control at 140 g/ha [1, 7]: 0 to 29%
pest or weed control at 70 g/ha [1, 8]: 0 to 29%
pest or weed control at 140 g/ha [1, 8]: 30 to 44%
pest or weed control at 70 g/ha [1, 9]: 0 to 29%
pest or weed control at 140 g/ha [1, 9]: 0 to 29%
pest or weed control at 70 g/ha [2, 10]: 85 to 94%
pest or weed control at 140 g/ha [2, 10]: 85 to 94%
pest or weed control at 70 g/ha [2, 11]: 0 to 29%
pest or weed control at 140 g/ha [2, 11]: 0 to 29%
pest or weed control at 70 g/ha [2, 12]: 45 to 59%
pest or weed control at 140 g/ha [2, 12]: 60 to 74%
pest or weed control at 70 g/ha [2, 13]: 85 to 94%
pest or weed control at 140 g/ha [2, 13]: 85 to 94%
pest or weed control at 70 g/ha [2, 14]: 95 to 100%
pest or weed control at 140 g/ha [2, 14]: 95 to 100%
pest or weed control at 70 g/ha [2, 15]: 85 to 94%
pest or weed control at 140 g/ha [2, 15]: 85 to 94%
pest or weed control at 70 g/ha [2, 16]: 0 to 29%
pest or weed control at 140 g/ha [2, 16]: 0 to 29%

COC(=O)c1nc(-c2ccc(C(F)(F)F)c(F)c2C)cc(N)c1Cl [Compound 9, methyl 4-amino-3-chloro-6-(3-fluoro-2-methyl-4-(trifluoromethyl)phenyl)picolinate]
pest or weed control at 70 g/ha [1, 17]: 95 to 100%
pest or weed control at 140 g/ha [1, 17]: 95 to 100%
pest or weed control at 70 g/ha [1, 3]: 0 to 29%
pest or weed control at 140 g/ha [1, 3]: 0 to 29%
pest or weed control at 70 g/ha [1, 4]: 0 to 29%
pest or weed control at 140 g/ha [1, 4]: 0 to 29%
pest or weed control at 70 g/ha [1, 5]: 0 to 29%
pest or weed control at 140 g/ha [1, 5]: 0 to 29%
pest or weed control at 70 g/ha [1, 7]: 0 to 29%
pest or weed control at 140 g/ha [1, 7]: 30 to 44%
pest or weed control at 70 g/ha [1, 8]: 0 to 29%
pest or weed control at 140 g/ha [1, 8]: 0 to 29%
pest or weed control at 70 g/ha [1, 9]: 0 to 29%
pest or weed control at 140 g/ha [1, 9]: 30 to 44%
pest or weed control at 70 g/ha [2, 10]: 85 to 94%
pest or weed control at 140 g/ha [2, 10]: 85 to 94%
pest or weed control at 70 g/ha [2, 11]: 0 to 29%
pest or weed control at 140 g/ha [2, 11]: 0 to 29%
pest or weed control at 70 g/ha [2, 12]: 0 to 29%
pest or weed control at 140 g/ha [2, 12]: 0 to 29%
pest or weed control at 70 g/ha [2, 13]: 85 to 94%
pest or weed control at 140 g/ha [2, 13]: 95 to 100%
pest or weed control at 70 g/ha [2, 14]: 95 to 100%
pest or weed control at 70 g/ha [2, 15]: 0 to 29%
pest or weed control at 140 g/ha [2, 15]: 85 to 94%
pest or weed control at 70 g/ha [2, 16]: 0 to 29%
pest or weed control at 140 g/ha [2, 16]: 0 to 29%

COC(=O)c1nc(-c2ccc(Cl)c(F)c2C)nc(N)c1OC [Compound 63]
pest or weed control at 70 g/ha [1, 17]: 0 to 29%
pest or weed control at 140 g/ha [1, 17]: 0 to 29%
pest or weed control at 70 g/ha [1, 3]: 0 to 29%
pest or weed control at 140 g/ha [1, 3]: 0 to 29%
pest or weed control at 70 g/ha [1, 4]: 0 to 29%
pest or weed control at 140 g/ha [1, 4]: 0 to 29%
pest or weed control at 70 g/ha [1, 5]: 0 to 29%
pest or weed control at 140 g/ha [1, 5]: 0 to 29%
pest or weed control at 70 g/ha [1, 6]: 0 to 29%
pest or weed control at 140 g/ha [1, 6]: 0 to 29%
pest or weed control at 70 g/ha [1, 7]: 0 to 29%
pest or weed control at 140 g/ha [1, 7]: 0 to 29%
pest or weed control at 70 g/ha [1, 8]: 0 to 29%
pest or weed control at 140 g/ha [1, 8]: 0 to 29%
pest or weed control at 70 g/ha [1, 9]: 0 to 29%
pest or weed control at 140 g/ha [1, 9]: 0 to 29%
pest or weed control at 70 g/ha [2, 10]: 0 to 29%
pest or weed control at 140 g/ha [2, 10]: 0 to 29%
pest or weed control at 70 g/ha [2, 11]: 85 to 94%
pest or weed control at 140 g/ha [2, 11]: 85 to 94%
pest or weed control at 70 g/ha [2, 12]: 30 to 44%
pest or weed control at 140 g/ha [2, 12]: 45 to 59%
pest or weed control at 70 g/ha [2, 13]: 85 to 94%
pest or weed control at 140 g/ha [2, 13]: 85 to 94%
pest or weed control at 70 g/ha [2, 14]: 0 to 29%
pest or weed control at 140 g/ha [2, 14]: 0 to 29%
pest or weed control at 70 g/ha [2, 15]: 75 to 84%
pest or weed control at 140 g/ha [2, 15]: 75 to 84%
pest or weed control at 70 g/ha [2, 16]: 0 to 29%
pest or weed control at 140 g/ha [2, 16]: 0 to 29%
